We go through 20 compounds from patent EP4596537A1, “NOVEL FLUORENE DERIVATIVE COMPOUND AND USE THEREOF” (JD Bioscience Inc., priority 2022, dated 2024).

A word on the inhibition: it is the share of the control response that was lost under treatment. Low readings indicate a weak effect, high ones a strong effect.

The subject of the first experiment is PDHE1α S293. In words: In vitro PDH S293 phosphorylation inhibition (Western blot) in HEK293 cells. It is filed as cell-based, human. The note with it: 5 hours, at 1 µM. An outline of the steps: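 HEK293 cells were switched to 0.5% FBS medium and treated with compounds at various concentrations for 5 h. Lysate protein (20 µg) was analysed by Western blot for phospho-PDHE1α S293 alongside total PDHE1α, with inhibition of S293 phosphorylation as the read-out.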
In general terms: A western blot detects proteins with antibodies after separation by electrophoresis.
Take “N'-(3-chloro-5-(trifluoromethyl)pyridin-2-yl)-2-(4-(9-hydroxy-2-methoxy-9-(trifluoromethyl)-9H-fluoren-4-yl)-1H-pyrazol-1-yl)propanehydrazide [Example 33]”: the “PDH S293 phosphorylation inhibition” value is “++ (50% or more of PHDE1α S293 expression inhibition rate at 1 µM)”.

The experiment is the same for the next values; noted with them: Homo sapiens, 5 hours.
In turn, `CC(C)(C(=O)NNc1ccc(F)cc1)n1cc(-c2cc(F)cc3c2-c2ccccc2C3(O)C(F)(F)F)cn1` (centres unmarked) [Example 47, 2-(4-(2-fluoro-9-hydroxy-9-(trifluoromethyl)-9H-fluoren-4-yl)-1H-pyrazol-1-yl)-N'-(4-fluorophenyl)-2-methylpropanehydrazide] returned an inhibition at 1 µM not below 50%.

Turning to `O=C(Cn1cc(-c2cc(F)cc3c2-c2ccccc2C3(O)C(F)(F)F)cn1)NNc1ccccn1` (centres unmarked) [Example 18, 2-(4-(2-fluoro-9-hydroxy-9-(trifluoromethyl)-9H-fluoren-4-yl)-1H-pyrazol-1-yl)-N'-(pyridin-2-yl)acetohydrazide], the inhibition at 1 µM was not below 80%.

`COc1cc(-c2cnn(C(C)C(=O)NNc3ccc(C(=O)OC(C)(C)C)cn3)c2)c2c(c1)C(O)(C(F)(F)F)c1ccccc1-2` (centres unmarked) [Example 15, tert-butyl 6-(2-(2-(4-(9-hydroxy-2-methoxy-9-(trifluoromethyl)-9H-fluoren-4-yl)-1H-pyrazol-1-yl)propanoyl)hydrazinyl)nicotinate] yielded an inhibition at 1 µM not below 50%. On the same count and under the same terms, as for `CC(C(=O)NNc1ccc(C(F)(F)F)cn1)n1cc(-c2cc(F)cc3c2-c2ccccc2C3(O)C(F)(F)F)cn1` (centres unmarked) [Example 26, 2-(4-(2-fluoro-9-hydroxy-9-(trifluoromethyl)-9H-fluoren-4-yl)-1H-pyrazol-1-yl)-N'-(5-(trifluoromethyl)pyridin-2-yl)propanehydrazide], the figure is not below 50%; as for `C[C@H](C(=O)NNc1ccc(F)cc1)n1cc(-c2cc(F)cc3c2-c2ccccc2[C@]3(O)C(F)(F)F)cn1` [Example 49, (R)-2-(4-((R)-2-fluoro-9-hydroxy-9-(trifluoromethyl)-9H-fluoren-4-yl)-1H-pyrazol-1-yl)-N'-(4-fluorophenyl)propanehydrazide], not below 50%.

Turning to `CC(C(=O)NNc1cnc2ccccc2n1)n1cc(-c2cc(F)cc3c2-c2ccccc2C3(O)C(F)(F)F)cn1` (centres unmarked) [Example 37, 2-(4-(2-fluoro-9-hydroxy-9-(trifluoromethyl)-9H-fluoren-4-yl)-1H-pyrazol-1-yl)-N'-(quinoxalin-2-yl)propanehydrazide], the inhibition at 1 µM is not below 50%. `COc1cc(-c2cnn(C(C)C(=O)NNc3cccc4ccccc34)c2)c2c(c1)C(O)(C(F)(F)F)c1ccccc1-2` (centres unmarked) [Example 11, 2-(4-(9-hydroxy-2-methoxy-9-(trifluoromethyl)-9H-fluoren-4-yl)-1H-pyrazol-1-yl)-N'-(naphthalen-1-yl)propanehydrazide] showed an inhibition at 1 µM not below 50%. The compound `CC(C(=O)NNc1ccncc1)n1cc(-c2cc(F)cc3c2-c2ccccc2C3(O)C(F)(F)F)cn1` (centres unmarked) [Example 34, 2-(4-(2-fluoro-9-hydroxy-9-(trifluoromethyl)-9H-fluoren-4-yl)-1H-pyrazol-1-yl)-N'-(pyridin-4-yl)propanehydrazide] showed an inhibition at 1 µM not below 50%. `CCC(C(=O)NNc1ccc(F)cc1)n1cc(-c2cc(F)cc3c2-c2ccccc2C3(O)C(F)(F)F)cn1` (centres unmarked) [Example 43, 2-(4-(2-fluoro-9-hydroxy-9-(trifluoromethyl)-9H-fluoren-4-yl)-1H-pyrazol-1-yl)-N'-(4-fluorophenyl)butanehydrazide] had an inhibition at 1 µM not below 50%. As for `COc1cc(-c2cnn(C(C)C(=O)NNc3ccc(C(=O)O)cn3)c2)c2c(c1)C(O)(C(F)(F)F)c1ccccc1-2` (centres unmarked) [Example 16, 6-(2-(2-(4-(9-hydroxy-2-methoxy-9-(trifluoromethyl)-9H-fluoren-4-yl)-1H-pyrazol-1-yl)propanoyl)hydrazinyl)nicotinic acid], the inhibition at 1 µM was not below 50%. In the case of `CC(C(=O)NNc1ncnc2ccccc12)n1cc(-c2cc(F)cc3c2-c2ccccc2C3(O)C(F)(F)F)cn1` (centres unmarked) [Example 35, 2-(4-(2-fluoro-9-hydroxy-9-(trifluoromethyl)-9H-fluoren-4-yl)-1H-pyrazol-1-yl)-N'-(quinazolin-4-yl)propanehydrazide], the inhibition at 1 µM was not below 50%. The same measure, in the same setting: as for `O=C(Cn1cc(-c2cc(F)cc3c2-c2ccccc2C3(O)C(F)(F)F)cn1)NNc1ccc(F)cc1` (centres unmarked) [Example 21, 2-(4-(2-fluoro-9-hydroxy-9-(trifluoromethyl)-9H-fluoren-4-yl)-1H-pyrazol-1-yl)-N'-(4-fluorophenyl)acetohydrazide], the figure is not below 50%.

As to `CC(C(=O)NNc1cnccn1)n1cc(-c2cc(F)cc3c2-c2ccccc2C3(O)C(F)(F)F)cn1` (centres unmarked) [Example 24, 2-(4-(2-fluoro-9-hydroxy-9-(trifluoromethyl)-9H-fluoren-4-yl)-1H-pyrazol-1-yl)-N'-(pyrazin-2-yl)propanehydrazide], the inhibition at 1 µM was not below 50%. Consider `CC(C(=O)NNc1ccccc1F)n1cc(-c2cc(F)cc3c2-c2ccccc2C3(O)C(F)(F)F)cn1` (centres unmarked) [Example 13, 2-(4-(2-fluoro-9-hydroxy-9-(trifluoromethyl)-9H-fluoren-4-yl)-1H-pyrazol-1-yl)-N'-(2-fluorophenyl)propanehydrazide], for which the inhibition at 1 µM was not below 50%. In turn, `COc1cc(-c2cnn(C(C)C(=O)NNc3ccc(S(C)(=O)=O)cc3)c2)c2c(c1)C(O)(C(F)(F)F)c1ccccc1-2` (centres unmarked) [Example 23, 2-(4-(9-hydroxy-2-methoxy-9-(trifluoromethyl)-9H-fluoren-4-yl)-1H-pyrazol-1-yl)-N'-(4-(methylsulfonyl)phenyl)propanehydrazide] yielded an inhibition at 1 µM not below 50%. Still for that read-out and setting: the figure for `CC(C(=O)NNc1ccc2ccccc2n1)n1cc(-c2cc(F)cc3c2-c2ccccc2C3(O)C(F)(F)F)cn1` (centres unmarked) [Example 39, 2-(4-(2-fluoro-9-hydroxy-9-(trifluoromethyl)-9H-fluoren-4-yl)-1H-pyrazol-1-yl)-N'-(quinolin-2-yl)propanehydrazide] is not below 50%; for `CC(C(=O)NNc1ccc(Cl)cc1)n1cc(-c2cc(F)cc3c2-c2ccccc2C3(O)C(F)(F)F)cn1` (centres unmarked) [Example 7, N'-(4-chlorophenyl)-2-(4-(2-fluoro-9-hydroxy-9-(trifluoromethyl)-9H-fluoren-4-yl)-1H-pyrazol-1-yl)propanehydrazide] it is not below 50%; for `CC(C(=O)NNc1ccnc2ccccc12)n1cc(-c2cc(F)cc3c2-c2ccccc2C3(O)C(F)(F)F)cn1` (centres unmarked) [Example 36, 2-(4-(2-fluoro-9-hydroxy-9-(trifluoromethyl)-9H-fluoren-4-yl)-1H-pyrazol-1-yl)-N'-(quinolin-4-yl)propanehydrazide] it is not below 50%. Still for that read-out and setting: the figure for `CC(C)CC(C(=O)NNc1ccc(F)cc1)n1cc(-c2cc(F)cc3c2-c2ccccc2C3(O)C(F)(F)F)cn1` (centres unmarked) [Example 45, 2-(4-(2-fluoro-9-hydroxy-9-(trifluoromethyl)-9H-fluoren-4-yl)-1H-pyrazol-1-yl)-N'-(4-fluorophenyl)-4-methylpentanehydrazide] is not below 50%.
